Data reported in patent US11957684B2, “Treatment of heavy menstrual bleeding associated with uterine fibroids” (Sumitomo Pharma Switzerland GmbH, priority 2016, dated 2024).
Like-named read-outs stand apart in the source and are kept apart here.

Tested on: endometriosis-associated pain
Format: in vivo, human
Conditions: 3.75 mg sc/4 wk
Description: Subjects assessed and recorded their own quality of life (QOL) using the EHP-30 once a month during the study visit. As used in the examples, the VAS score was evaluated using a 100 mm scale. For pain intensity, the scale was anchored by “no pain” (score of 0) and “pain as bad as you can imagine” (score of 100). […] The above items were evaluated using a patient diary that was distributed by the sponsor. Subjects filled out the patient diary every day during the treatment period or until early termination. If taking prohibited analgesics, subjects recorded this fact in the patient diary along with the accompanying pain symptoms before use of analgesics. As used in the examples, pain during menstruation and pelvic pain unrelated to menstruation were evaluated using scores on the M-B&B and B&B. The M-B&B scores were recorded by subjects on the patient diary supplied by the sponsor. Subjects filled out the patient diary every day during the treatment period or until early termination. If taking prohibited analgesics, subjects recorded this fact in the patient diary along with the accompanying pain symptoms before use of analgesics. The investigator or subinvestigator assessed each patient's pain through interviews and filled out a B&B once a month. The items that were assessed are shown below. The M-B&B score included: dysmenorrhea (severe, moderate, mild, no pain, or no menstruation); pelvic pain (severe, moderate, mild, or no pain); deep dyspareunia (severe, moderate, mild, no pain, or no intercourse). The B&B score included: dysmenorrhea (severe, moderate, mild, none, or not applicable); dyspareunia (severe, moderate, mild, none, or not applicable); pelvic pain (severe, moderate, mild, or none); pelvic tenderness (severe, moderate, mild, or none); and induration (severe, moderate, mild, or none). As used in the examples, the EHP-30 score was obtained by subjects assessing and recording their own QOL using the EHP-30 questionnaire.

[1] = end of treatment, listed as leuprorelin

CCNC(=O)[C@@H]1CCCN1C(=O)[C@H](CCCNC(=N)N)NC(=O)[C@H](CC(C)C)NC(=O)[C@@H](CC(C)C)NC(=O)[C@H](Cc1ccc(O)cc1)NC(=O)[C@H](CO)NC(=O)[C@H](Cc1c[nH]c2ccccc12)NC(=O)[C@H](Cc1c[nH]cn1)NC(=O)[C@@H]1CCC(=O)N1 [leuprolide acetate, reference compound]
change from baseline in mean VAS, dysmenorrhea (Day 1-28): −9.985±15.7027 mm | change from baseline in mean VAS, dyspareunia (Day 1-28): −3.126±17.0520 mm | change from baseline in mean VAS, pelvic pain (Day 1-28): −4.282±7.3628 mm | mean VAS score, dysmenorrhea (Day 1-28): 17.133±19.4179 mm | mean VAS score, dyspareunia (Day 1-28): 7.288±16.2960 mm | mean VAS score, pelvic pain (Day 1-28): 10.899±14.8866 mm | change from baseline in mean VAS, dysmenorrhea (Day 57-84): −27.558±19.9878 mm | change from baseline in mean VAS, dyspareunia (Day 57-84): −6.752±10.5824 mm | change from baseline in mean VAS, pelvic pain (Day 57-84): −10.364±10.4428 mm | mean VAS score, dysmenorrhea (Day 57-84): 0.000±0.0000 mm | mean VAS score, dyspareunia (Day 57-84): 5.478±10.7612 mm | mean VAS score, pelvic pain (Day 57-84): 5.013±12.0454 mm | change from baseline in mean VAS, dysmenorrhea (Day 141-168): −28.373±20.7287 mm | change from baseline in mean VAS, dyspareunia (Day 141-168): −4.953±16.9523 mm | change from baseline in mean VAS, pelvic pain (Day 141-168): −13.804±12.8288 mm | mean VAS score, dysmenorrhea (Day 141-168): 0.000±0.0000 mm | mean VAS score, dyspareunia (Day 141-168): 5.565±12.5556 mm | mean VAS score, pelvic pain (Day 141-168): 2.167±5.1999 mm | change from baseline in EHP-30, Self-image (Week 24): −9.42±15.553 | change from baseline in EHP-30, control & powerlessness (Week 24): −24.80±23.839 | change from baseline in EHP-30, emotional well-being (Week 24): −12.37±18.332 | change from baseline in EHP-30, pain (Week 24): −26.38±20.341 | change from baseline in EHP-30, social support (Week 24): −10.46±17.923 | change from baseline in mean B&B score, dysmenorrhea (Week 24): −2.1±0.49 | change from baseline in mean B&B score, dyspareunia (Week 24): −0.5±0.88 | change from baseline in mean B&B score, induration (Week 24): −0.8±0.82 | change from baseline in mean B&B score, pelvic pain (Week 24): −1.2±0.72 | change from baseline in mean B&B score, pelvic tenderness (Week 24): −1.1±0.78 | subjects without pain in B&B score, dysmenorrhea (Week 24): 100% | subjects without pain in B&B score, dyspareunia (Week 24): 70.6% | subjects without pain in B&B score, induration (Week 24): 75.4% | subjects without pain in B&B score, pelvic pain (Week 24): 68.9% | subjects without pain in B&B score, pelvic tenderness (Week 24): 70.5% | change from baseline in maximum M-B&B score, dysmenorrhea (end of treatment): −1.9±0.69 | change from baseline in maximum M-B&B score, dyspareunia (end of treatment): −0.4±0.78 | change from baseline in maximum M-B&B score, pelvic pain (end of treatment): −1.3±0.82 | change from baseline in maximum VAS, dysmenorrhea (end of treatment): −51.8±27.01 mm | change from baseline in maximum VAS, dyspareunia (end of treatment): −10.3±19.76 mm | change from baseline in maximum VAS, pelvic pain (end of treatment): −46.8±26.29 mm | change from baseline in mean M-B&B score, deep dyspareunia (end of treatment): −0.208±0.5604 | change from baseline in mean M-B&B score, dysmenorrhea (end of treatment): −1.160±0.4802 | change from baseline in mean M-B&B score, pelvic pain (end of treatment): −0.483±0.4860 | change from baseline in mean VAS, dysmenorrhea (end of treatment): −26.944±19.9212 mm | change from baseline in mean VAS, dyspareunia (end of treatment): −4.593±15.0878 mm | change from baseline in mean VAS, pelvic pain (end of treatment): −12.552±12.5609 mm | change from baseline in mean score of amount of bleeding (0 to 5) (end of treatment): −2.320±0.7281 | change in proportion of days without pain (M-B&B), deep dyspareunia (end of treatment): 21.76±43.266% | change in proportion of days without pain (M-B&B), dysmenorrhea (end of treatment): 80.29±23.327% | change in proportion of days without pain (M-B&B), pelvic pain (end of treatment): 33.42±34.007% | change in proportion of days without pain (VAS), dysmenorrhea (end of treatment): 82.09±24.051% | change in proportion of days without pain (VAS), dyspareunia (end of treatment): 21.76±43.266% | change in proportion of days without pain (VAS), pelvic pain (end of treatment): 40.70±33.342% | mean VAS score, dysmenorrhea (end of treatment): 0.174±1.1623 mm | mean VAS score, dyspareunia (end of treatment): 4.913±10.6249 mm | mean VAS score, pelvic pain (end of treatment): 2.629±5.5783 mm | subjects who achieved amenorrhea (end of treatment): 97.5% | subjects without pain in M-B&B score, dysmenorrhea (end of treatment): 97.5% | subjects without pain in M-B&B score, dyspareunia (end of treatment): 56.5% | subjects without pain in M-B&B score, pelvic pain (end of treatment): 63.8% | subjects without pain in VAS score, dysmenorrhea (end of treatment): 97.5% | subjects without pain in VAS score, dyspareunia (end of treatment): 56.5% | subjects without pain in VAS score, pelvic pain (end of treatment): 56.8% | change from baseline in mean VAS, pelvic pain [1]: −12.552 mm | subjects without pain in VAS score, pelvic pain [1]: 57%
